The source of these data is patent publication US20170239318A1, “COMPOSITONS AND METHODS FOR CARTILAGE DEFECT REPAIR USING A RHAMM-MIMETIC PEPTIDE” (New York University, priority 2014, published 2017).

Like-named read-outs stand apart in the source and are kept apart here.

The test system of test [1] is RHAMM over-expressing LR21 cells. Nature of the test: in vitro random motility assay (scratch wound, HA fragment-stimulated cell migration). Format: cell-based. The note with it: 50 μg/mL peptide with 500 ng/mL 30-mer HA fragments, 24 hours; relative to PBS control, p<0.05. As for the experimental part:
FIG. 2: Effect of peptide 15-1 on fibroblast migration, using an in vitro random motility assay. RHAMM over-expressing LR21 cells were plated on a fibronectin-coated surface in Dulbecco's Modified Eagles Medium (DMEM) with 10% fetal bovine serum (FBS). The following day medium was changed to DMEM with 1% FBS, 50 μg/ml peptide, 500 ng/ml 30-mer HA fragment. Random motility was measured microscopically. “Old P15-1” refers to a peptide batch that was used in previous experiments. As control (ctr), PBS was used instead of peptide.
Functional testing of peptide 15-1 using an in vitro random motility assay. The functional testing of peptide 15-1 using an in vitro random motility assay was done essentially as previously described (16). Briefly, RHAMM over-expressing LR21 cells were plated at 7×10^5 cells/well in fibronectin coated six-well plates using Dulbecco's modified Eagle's medium (DMEM) (Gibco BRL/Invitrogen, Carlsbad, Calif.) containing 10% fetal calf serum (FCS). Confluence of cell monolayers after 24 hours was between 80% and 90%. […] The number of cells that had migrated into the scratch wounds was quantified using NIH image processing software ImageJ as follows. A box adjusted to reach each opposing edge of the wound was placed over 3 randomly assigned parts of each scratch wound and the numbers of cells within the box were counted. […]

Test [2] deals with serum-starved human articular chondrocytes. Nature of the test: mRNA levels of catabolic and articular cartilage markers in serum-starved human articular chondrocytes (real time PCR). Type of test: cell-based. The note with it: 48 h. As for the experimental part:
FIG. 6: RHAMM-mimetic peptide at concentrations up to 5 μg/ml decreased the mRNA levels of iNOS and MMP-13 (catabolic markers; A) and increased the mRNA levels of type II collagen (α1(II), articular cartilage marker, B) in serum-starved human articular chondrocytes. […] In addition, […] of peptide decreased the mRNA levels of type II collagen. Human articular chondrocytes after being serum-starved for 24 h were treated with RHAMM-mimetic peptide of SEQ ID NO:1 (Pep.) at various concentrations (0, 26, 52, 520, 1000, 5000 ng/ml) for 48 h. mRNA levels of iNOS, MMP-13, and type II collagen were determined by real time PCR using SYBR Green and normalized to the 18 S RNA. mRNA levels are expressed as relative units with the mRNA levels of untreated cells set as 1. Data are expressed as mean±SD from the results of three different cultures.
Chondrocyte Cultures. Human articular chondrocytes were isolated from articular cartilage samples obtained from patients (donor age range 48-67) undergoing total knee replacement surgery at NYU Hospital for Joint Diseases. Knee cartilage was harvested from regions with no macroscopically evident degeneration. The collection of tissue from patients undergoing knee replacement surgery was approved by the Institutional Regulatory Board (IRB) at NYU School of Medicine. Human chondrocytes were isolated from these cartilage samples and cultured as described by us previously (24). Before human chondrocyte cultures were treated with inflammatory stimulus (interleukin-1beta (IL-1β), chondrocyte cultures were switched to serum-free medium for 24 h followed by treatment with the inflammatory stimulus. Cells were treated with 10 ng/ml human recombinant IL-1β in phosphate-buffered saline (PBS)/0.1% BSA. In addition, serum-starved cells were treated with RHAMM-mimetic peptide at various concentrations, HMWHA (ORTHOVISC) at a concentration of 1000 μg/ml, and a combination at four different weight ratios (1:60, 1:30, 1:15, 1:8) of peptide and HMWHA. Cells were treated with these various agents for 24 or 48 h under serum-free conditions.
(§1) RT-PCR and Real-Time PCR Analysis. mRNA levels of catabolic markers (cyclooxygenase (Cox)-2, interleukin (IL)-6, inducible nitric oxide synthase (iNOS), matrix metalloproteinase (MMP)-13) and articular cartilage markers (aggrecan, type II collagen) were determined by real time PCR analysis as described by us previously (25, 26). Briefly, total RNA was isolated from chondrocyte cultures using the RNEASY minikit (Qiagen, Valencia, Calif.). One μg of total RNA was reverse transcribed by using an OMNISCRIPT RT kit (Qiagen). A 1:100 dilution of the resulting cDNA was used as the template to quantify the relative content of mRNA by real-time PCR (STEPONEPLUS™ System; Applied Biosystems, Foster City, Calif.) with the appropriate primers and SYBR Green. PCRs were performed with a SYBR Green PCR Master Mix kit (Applied Biosystems), at 95° C. for 10 min followed by 40 cycles at 95° C. for 15 s and 60° C. for 1 min, and 1 cycle at 95° C. for 15 s and 60° C. for 1 min. The 18 S RNA was amplified at the same time and used as an internal control. The cycle threshold values for 18 S RNA and the samples were measured and calculated by computer software.
On the technique in general: In qPCR the cycle at which signal appears reflects the starting amount.

Test [3] deals with IL-1β-treated human articular chondrocytes. Nature of the test: HA released into the medium of IL-1β-treated human articular chondrocytes (ELSA). The settings on record: 10 ng/ml IL-1β, 48 h. Type of test: cell-based. The method, then:
FIG. 7: HA concentration in the medium of human articular chondrocytes is increased by IL-1β. A: RHAMM-mimetic peptide at a concentration of 0.026 μg/ml or 0.052 μg/ml (Pep0.026, Pep0.052) had no effect on the HA release into the medium of IL-1β-treated chondrocytes. […] Human articular chondrocytes were serum-starved for 24 h followed by treatment of these cells with 10 ng/ml IL-1β and various concentrations of the RHAMM-mimetic peptide for 48 h. HA released into the medium was measured by ELSA (ELISA-like) specific assay.
Chondrocyte Cultures. Human articular chondrocytes were isolated from articular cartilage samples obtained from patients (donor age range 48-67) undergoing total knee replacement surgery at NYU Hospital for Joint Diseases. Knee cartilage was harvested from regions with no macroscopically evident degeneration. The collection of tissue from patients undergoing knee replacement surgery was approved by the Institutional Regulatory Board (IRB) at NYU School of Medicine. Human chondrocytes were isolated from these cartilage samples and cultured as described by us previously (24). […]
Analysis of HA concentration in Chondrocyte Culture Medium. […] Conditioned media (approximately 1 ml each sample) from chondrocyte cultures were stored frozen at −20° C. until analyzed. […]

Test [4] has the same test system. Put plainly: mRNA levels of Cox-2 and type II collagen in IL-1β-treated human articular chondrocytes (real time PCR). Format: cell-based. The note with it: peptide at concentrations up to 64 μg/ml (16, 32, 64), 10 ng/ml IL-1β, 24 h. The method, then:
FIG. 8: RHAMM-mimetic peptide at concentrations (16, 32, 64 μg/ml) decreased the mRNA levels of Cox-2 (catabolic marker; A) and increased the mRNA levels of type II collagen (α1 (II), articular cartilage marker, B) in IL-1β-treated human articular chondrocytes. […] Data are expressed as mean±SD from three different cultures.
Chondrocyte Cultures. Human articular chondrocytes were isolated from articular cartilage samples obtained from patients (donor age range 48-67) undergoing total knee replacement surgery at NYU Hospital for Joint Diseases. Knee cartilage was harvested from regions with no macroscopically evident degeneration. […]
RT-PCR and Real-Time PCR Analysis. mRNA levels of catabolic markers (cyclooxygenase (Cox)-2, interleukin (IL)-6, inducible nitric oxide synthase (iNOS), matrix metalloproteinase (MMP)-13) and articular cartilage markers (aggrecan, type II collagen) were determined by real time PCR analysis as described by us previously (25, 26). […] A 1:100 dilution of the resulting cDNA was used as the template to quantify the relative content of mRNA by real-time PCR (STEPONEPLUS™ System; Applied Biosystems, Foster City, Calif.) with the appropriate primers and SYBR Green. […] The cycle threshold values for 18 S RNA and the samples were measured and calculated by computer software.

The subject of another test is SW982 synovial cell line. Put plainly: mRNA levels of catabolic markers in IL-1β-treated SW982 synovial fibroblasts (real time PCR). The settings on record: 52 ng/ml peptide, 10 ng/ml IL-1β, 24 h. Format: cell-based. The method, then:
FIG. 9: RHAMM-mimetic peptide decreased the mRNA levels of catabolic markers (Cox-2, IL-6, MMP-13) in the SW982 synovial cell line. SW982 cells after being serum-starved for 24 h were treated with RHAMM-mimetic peptide of SEQ ID NO:1 (Pep) at a concentration of 52 ng/ml for 24 h. mRNA levels of Cox-2, IL-6 and MMP-13 were determined by real time PCR using SYBR Green and normalized to the 18 S RNA. mRNA levels are expressed as relative units with the mRNA levels of untreated cells set as 1. Data are expressed as mean±SD from the results of three different cultures.
The synovial fibroblast cell line SW982 was used between passage 3 and passage 7 and cultured in DMEM containing 10% fetal calf serum until the cells reached confluence. Cells were then serum-starved for 24 h and then treated with 10 ng/ml recombinant human IL-1β and 52 ng/ml RHAMM-mimetic peptide for 48 h.
as §1

The next test concerns the target T1, recombinant RHAMM (Homo sapiens, UniProt O75330).
T1 sequence (O75330 1-724): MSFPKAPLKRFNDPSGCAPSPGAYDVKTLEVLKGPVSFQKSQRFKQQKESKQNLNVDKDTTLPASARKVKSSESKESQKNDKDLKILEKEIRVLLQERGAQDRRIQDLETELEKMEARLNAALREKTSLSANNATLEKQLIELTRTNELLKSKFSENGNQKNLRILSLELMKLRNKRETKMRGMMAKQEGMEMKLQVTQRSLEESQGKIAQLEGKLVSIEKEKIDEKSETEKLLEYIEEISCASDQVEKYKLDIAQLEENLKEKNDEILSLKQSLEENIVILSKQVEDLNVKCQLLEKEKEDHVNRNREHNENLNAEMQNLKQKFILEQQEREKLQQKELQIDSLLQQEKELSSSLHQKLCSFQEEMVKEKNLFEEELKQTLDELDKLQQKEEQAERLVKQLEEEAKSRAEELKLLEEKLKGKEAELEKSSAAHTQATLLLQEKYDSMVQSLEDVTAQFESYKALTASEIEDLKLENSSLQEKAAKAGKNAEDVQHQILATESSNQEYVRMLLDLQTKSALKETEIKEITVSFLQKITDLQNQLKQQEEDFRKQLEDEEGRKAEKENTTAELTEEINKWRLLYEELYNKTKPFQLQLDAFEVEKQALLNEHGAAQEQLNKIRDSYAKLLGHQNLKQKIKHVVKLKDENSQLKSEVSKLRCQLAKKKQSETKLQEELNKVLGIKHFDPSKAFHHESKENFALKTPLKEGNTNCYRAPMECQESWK
The settings on record: cited from earlier work.

The subject of test [5] is full-thickness excisional rat wound. The note with it: cited from earlier work.
In a further test the test system is skin wound repair. The note with it: cited from earlier work.
Setting [6] is: all concentrations tested (0.026, 0.052, 0.520, 1, 5, 800 μg/ml), vs untreated cells.
[7] abbreviates: applied once to the wound, compared to scrambled, negative control peptide.

Consider STMMSRSHKTRSHHV [RHAMM-mimetic peptide], for which the “reduction in fibroblast migration (number of cells migrated into the scratch wounds)” value in test [1] is listed as “statistically significant”. Moreover, in test [2] (800 μg/ml compared with lower concentrations of the peptide), the “decrease of mRNA levels of the catabolic markers (iNOS, MMP-13)” value is on record as “not as effective”. Also, the “type II collagen mRNA level” value in test [2] (800 μg/ml, compared to untreated cells) is reported as “decreased”. Also, in test [2] (setting [6]), the “MMP-13 mRNA levels” value is listed as “decreased” and the “iNOS mRNA levels” value is recorded as “decreased”. Besides, the “type II collagen mRNA levels” value in test [2] (concentrations up to 5 μg/ml, vs untreated cells) was “increased”. Also, in test [3] (peptide 26 ng/ml or 52 ng/ml), the “HA concentration in conditioned medium (increase caused by IL-1β)” value is reported as “little effect”. For the same sequence, the “HA concentration in conditioned medium (increase caused by IL-1β)” value in test [3] (peptide 17 μg/ml) is “significantly reduced”. Also, in test [4], the “Cox-2 mRNA levels” value is “decreased” and the “type II collagen mRNA level” value is given as “increased”. Also, in the test with SW982 synovial cell line, the “Cox-2 mRNA levels” value is on record as “markedly reduced”, the “IL-6 mRNA levels” value was “markedly reduced” and the “MMP-13 mRNA levels” value is “markedly reduced”. Moreover, the “binding of HA fragments to recombinant RHAMM” value with recombinant RHAMM is “markedly reduced”. For the same sequence, the scarless healing result in test [5] (applied once to a full-thickness excisional rat wound) is reported as “promoted a form of scarless healing”. In addition, in test [5] (setting [7]), the blood vessel density result is recorded as “reduced”, the fibroblast number entry is reported as “reduced” and the macrophage number result was “reduced”. Further, the “type of healing / fibrosis” value in test [5] (excisional skin wounds, rat model) was “regenerative type of healing with reduced fibrosis”. Also, the wound repair result in the test with skin wound repair (RHAMM−/− mice) is “not”. In addition, the wound repair result in the test with skin wound repair (wild type mice) is recorded as “altered”.
